Assay results: patent US4663435A, “Bridged cyclic hexapeptide somatostatin analogs” (Merck & Co., Inc., priority 1985, dated 1987)
Positions of bridges follow the written chain, without caps; N, C: chain ends. Non-standard residues stand in square brackets, D forms with d. Residues, ends and D or L forms follow the SMILES beside them.

Key:
[1] = stability of the isolated peptide with respect to polymerization; assay type: physicochemical
Procedure: In order to stabilize the compound toward such decomposition it was treated in aqueous solution with 10-40 mole % of N-ethylmaleimide, a reagent which will react with free sulfhydryl groups that could catalyze disulfide interchange. The excess N-ethyl maleimide was separated by passage through a column of Sephadex G-25 gel (superfine) eluted with 50% acetic acid.

portal vein insulin = test: decrease of portal vein insulin levels in anesthetized rats; assay type: in vivo, rat; conditions: multiple or fraction of the effect of somatostatin (=1), fiducial limits in parentheses, external jugular vein, portal vein blood after 5 minutes
Procedure: (§1) Analogs of somatostatin were compared to somatostatin in their ability to decrease the levels of portal vein glucagon and insulin in anesthetized rats. Male Sprague-Dawley rats (Charles River CD) weighing 160-200 g were anesthetized with urethane (150 mg/100 g of body weight; Aldrich). Saline or peptides were adminstered via the external jugular vein. After 5 minutes, the portal vein was exposed, and blood was collected via syringe containing 3 mg of EDTA and placed in chilled tubes containing 100 μl of Trasylol (FBA Pharmaceuticals) for subsequent hormone analysis. Plasma levels of glucagon were determined by the method of Faloona and Unger, Methods of Hormone Radioimmunoassay, Jaffe and Behrman (Eds), Academic Press, New York, Vol. II, pp. 257-527 (1976), utilizing glucagon antisera 30K obtained from R. Unger (Dallas, TX). Plasma levels of insulin were determined by a modification of the procedure of Herbert et al., J. Clin. Endocrinol. Metab., 25, 1375-1384 (1965).

portal vein glucagon = test: decrease of portal vein glucagon levels in anesthetized rats; assay type: in vivo, rat; conditions: relative to somatostatin (=1), external jugular vein, portal vein blood after 5 minutes
Procedure: as §1

[2] = system: growth hormone release from rat pituitary cells; test: in vitro test for the inhibition of growth hormone release, cultured rat pituitary cells; assay type: cell-based; conditions: multiple or fraction of the effect of somatostatin (=1), fiducial limits in parentheses, 4 hours incubation
Procedure: The instant cyclic hexapeptide analogs of somatostatin are tested and compared with the effects of somatostatin in an in vitro test for the inhibition of growth hormone. The test is described as follows:
"Rat pituitaries were isolated according to the procedures of Vale and Grant `In Vitro Pituitary Hormone Secretion Assay for Hypophysiotropic Substances` in Methods in Enzymology. Vol. XXXVII, eds. O'Malley, B. W. and Hardman, J. G. (Academic Press, Inc., New York) pp. 5-93 (1975).
After 4 days in culture, the cells were washed and incubated for 4 hours in Dulbecco-modified Eagle's medium in the presence or absence of graded doses of each analog or somatostatin. The medium was then collected for subsequent growth hormone determination by a double antibody radioimmunoassay for rat growth hormone."

Row | SMILES | stability with respect to polymerization ([1]; after treatment with 10-40 mole % of N-ethylmaleimide and reisolation) | stability with respect to polymerization ([1]; sample as isolated, in certain solvents or on extended storage) | Insulin Inhibition (portal vein insulin) | Glucagon Inhibition (portal vein glucagon) | Growth Hormone Release Inhibition [2]
1 | C[C@@H](O)[C@@H]1NC(=O)[C@H](CCCCN)NC(=O)[C@@H](Cc2c[nH]c3ccccc23)NC(=O)[C@H](Cc2ccccc2)NC(=O)[C@@H]2CSSC[C@H](NC1=O)C(=O)N2 (cyclo(CCF[dW]KT); disulfide 1-2) | completely stable | unstable | 10.6(5.5-19.9) | Active | 2.47(1.66-3.81)
2 | C[C@H](N)C(=O)NCC(=O)N[C@H]1CSSC[C@@H](C(=O)O)NC(=O)[C@H](CO)NC(=O)[C@H]([C@@H](C)O)NC(=O)[C@H](Cc2ccccc2)NC(=O)[C@H]([C@@H](C)O)NC(=O)[C@H](CCCCN)NC(=O)[C@H](Cc2c[nH]c3ccccc23)NC(=O)[C@H](Cc2ccccc2)NC(=O)[C@H](Cc2ccccc2)NC(=O)[C@H](CC(N)=O)NC(=O)[C@H](CCCCN)NC1=O [Somatostatin] | – | – | – | 1 | –
